Assay results reported in patent US9120812B2, “Pyrimidooxazocine derivatives as mTOR-inhibitors” (SANOFI, priority 2012, dated 2015).

Tests used:
[1] = target: mTOR (human recombinant aa mTOR 1360-2549) (Homo sapiens (Human), UniProt P42345); experiment: mTOR enzymatic test by TR-FRET (phosphorylation of GFP-4EBP1); format: biochemical
Method in brief: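 After a 30 min room-temperature kinase reaction, EDTA (10 mM final) and Tb-labelled phospho-Thr46 antibody (2 nM final) were added and incubated 60 min. Energy transfer from Tb to phosphorylated GFP-4EBP1 was read at 340 nm excitation, emissions 490/520 nm. Values derive from the 520/490 fluorescence ratio.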

U87MG tumour cells = experiment: Test of in vitro proliferation of U87MG tumour cells; format: cell-based; settings: Homo sapiens, U-87 MG, 72 h, U87MG cells, 72 hours; read-out: U87 Cell Proliferation IC50
Experimental: Model 4: Test of in vitro Proliferation of U87MG Tumour Cells.
The cell growth is determined with the reagent CellTiter 96 AQueous One Solution Cell Proliferation Assay from Promega (Cat. No. G3581).

Akt-pS473 in U87MG cells = settings: Homo sapiens, U-87 MG; for IC50: read-out: U87 Akt-pS473 % Inhibition or IC50, nM (IC50), U87MG cells; for inhibition at 3 µM: read-out: U87 Akt-pS473 % Inhibition
Experimental: Model 3: Cellular Test of Phosphorylation of the Epitope S473 of the Akt Protein on the U87MG Line Via an ELISA Test
An electrochemiluminescence signal is generated by a ruthenium-labelled anti-rabbit antibody.
After culturing for 16-20 hours (the cells are at 100% of confluence) at 37° C. under 5% CO2, 1 μl of the chemical compounds in 100% DMSO (1% DMSO final concentration on the cells) is added. The cells are incubated with the compounds for 3 hours at 37° C. under 5% CO2.
The free sites are blocked with 150 μl/well of a buffer of 50 mM Tris pH 7.5, 0.15 M NaCl, 0.02% Tween 20, 3% BSA with stirring at 450 rpm for 1 hour at room temperature, followed by a step of washing with 3×300 μl of a buffer of 50 mM Tris pH 7.5, 0.15 M NaCl, 0.02% Tween 20.
15 μl of cell lysate are mixed with 15 μl of a 50 mM buffer of Tris pH 7.5, 0.15 M NaCl, 0.02% Tween 20, 1% BSA in a precoated ELISA plate (see above), and incubated for 1 hour at room temperature with stirring, followed by a step of washing with 3×300 μl of a buffer of 50 mM Tris pH 7.5, 0.15 M NaCl, 0.02% Tween 20. The pS473 epitope of Akt is detected with a rabbit polyclonal antibody (Cell Signaling, SC9271), diluted 100-fold in 50 mM Tris pH 7.5, 0.15 M NaCl, 0.02% Tween 20, 1% BSA, 25 μl/well (incubation for 1 hour at room temperature with stirring at 450 rpm).
After washing (see above), revelation is performed with a ruthenium-labelled anti-rabbit antibody (MSD R32AB1), diluted 3000-fold in a 50 mM buffer of Tris pH 7.5, 0.15 M NaCl, 0.02% Tween 20, 1% BSA, 25 μl/well, followed by incubation for 1 hour at room temperature with stirring at 450 rpm, and the plates are covered with aluminium.
After a further washing step, the plates are emptied and 150 μl of MSD Read Buffer T diluted fourfold with water are added. The electrochemiluminescence is measured on the MSD Sector Imager 6000.

PI3Kα (p110α/p85α) = PI3Kα (p110α/p85α) (Homo sapiens (Human), UniProt P42336); experiment: PI3Kα enzymatic test by measuring the consumption of ATP; format: biochemical
Sequence of PI3Kα (p110α/p85α) (P42336 whole entry): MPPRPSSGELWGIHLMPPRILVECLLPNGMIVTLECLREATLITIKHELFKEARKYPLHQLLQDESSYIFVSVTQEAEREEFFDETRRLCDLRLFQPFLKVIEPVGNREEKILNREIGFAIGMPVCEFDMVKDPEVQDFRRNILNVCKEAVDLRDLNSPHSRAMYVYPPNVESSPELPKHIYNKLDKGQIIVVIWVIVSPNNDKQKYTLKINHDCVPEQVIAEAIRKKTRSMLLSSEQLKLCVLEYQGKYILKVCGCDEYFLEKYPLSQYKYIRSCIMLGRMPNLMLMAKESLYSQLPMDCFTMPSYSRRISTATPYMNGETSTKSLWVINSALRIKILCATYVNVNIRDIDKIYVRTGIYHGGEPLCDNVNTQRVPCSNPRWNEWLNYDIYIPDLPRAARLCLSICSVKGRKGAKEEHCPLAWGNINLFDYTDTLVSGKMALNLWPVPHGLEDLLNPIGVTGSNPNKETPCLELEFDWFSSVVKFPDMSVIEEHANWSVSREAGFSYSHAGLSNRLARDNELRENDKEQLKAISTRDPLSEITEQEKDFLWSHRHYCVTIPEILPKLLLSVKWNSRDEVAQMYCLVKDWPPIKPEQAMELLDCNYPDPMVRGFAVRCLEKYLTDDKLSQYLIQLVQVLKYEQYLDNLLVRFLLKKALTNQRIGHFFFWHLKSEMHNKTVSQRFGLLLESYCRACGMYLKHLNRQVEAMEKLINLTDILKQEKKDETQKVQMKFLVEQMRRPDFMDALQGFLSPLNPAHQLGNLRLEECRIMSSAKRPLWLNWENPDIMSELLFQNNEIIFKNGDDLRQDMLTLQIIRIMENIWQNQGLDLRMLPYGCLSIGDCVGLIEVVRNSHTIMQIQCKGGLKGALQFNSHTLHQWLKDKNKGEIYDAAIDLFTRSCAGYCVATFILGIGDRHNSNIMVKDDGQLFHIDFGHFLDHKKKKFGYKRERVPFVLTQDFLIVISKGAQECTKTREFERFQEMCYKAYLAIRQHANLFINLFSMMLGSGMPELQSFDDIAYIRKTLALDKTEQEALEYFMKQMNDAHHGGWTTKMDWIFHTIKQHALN
Sequence of PI3Kα (p110α/p85α) (P27986 whole entry partner): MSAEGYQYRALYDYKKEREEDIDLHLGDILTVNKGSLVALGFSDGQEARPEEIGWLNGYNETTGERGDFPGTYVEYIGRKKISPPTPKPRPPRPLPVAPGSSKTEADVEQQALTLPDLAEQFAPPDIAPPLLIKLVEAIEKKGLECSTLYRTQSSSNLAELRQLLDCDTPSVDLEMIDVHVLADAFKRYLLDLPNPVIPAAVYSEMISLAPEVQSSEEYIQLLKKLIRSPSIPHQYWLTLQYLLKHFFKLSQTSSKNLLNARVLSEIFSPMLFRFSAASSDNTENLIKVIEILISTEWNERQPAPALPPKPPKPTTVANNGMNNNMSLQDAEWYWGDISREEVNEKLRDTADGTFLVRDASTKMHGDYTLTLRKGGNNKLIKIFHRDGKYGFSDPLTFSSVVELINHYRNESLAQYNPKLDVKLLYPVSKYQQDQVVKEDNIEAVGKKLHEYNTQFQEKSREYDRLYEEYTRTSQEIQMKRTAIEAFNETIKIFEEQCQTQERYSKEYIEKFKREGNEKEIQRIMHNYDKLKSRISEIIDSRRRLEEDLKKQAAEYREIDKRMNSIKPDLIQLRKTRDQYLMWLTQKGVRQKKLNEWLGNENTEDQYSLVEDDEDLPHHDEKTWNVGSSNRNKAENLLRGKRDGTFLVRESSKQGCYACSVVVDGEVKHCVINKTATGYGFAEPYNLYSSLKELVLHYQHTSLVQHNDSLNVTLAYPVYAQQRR
Method in brief: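 ATP consumption read out by KinaseGlo luminescence after a 90 min reaction of 1.7 μg/ml PI3Kα (p110α/p85α) with 2 μM ATP and 50 μM PIP2, buffered at pH 7.5 (Tris, 10 mM MgCl2, 1 mM EGTA, 0.03% Chaps, 1 mM DTT). Threefold dilution series over ≥10 000-fold range yield IC50.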

Sequence of mTOR (human recombinant aa mTOR 1360-2549) (P42345 1360-2549): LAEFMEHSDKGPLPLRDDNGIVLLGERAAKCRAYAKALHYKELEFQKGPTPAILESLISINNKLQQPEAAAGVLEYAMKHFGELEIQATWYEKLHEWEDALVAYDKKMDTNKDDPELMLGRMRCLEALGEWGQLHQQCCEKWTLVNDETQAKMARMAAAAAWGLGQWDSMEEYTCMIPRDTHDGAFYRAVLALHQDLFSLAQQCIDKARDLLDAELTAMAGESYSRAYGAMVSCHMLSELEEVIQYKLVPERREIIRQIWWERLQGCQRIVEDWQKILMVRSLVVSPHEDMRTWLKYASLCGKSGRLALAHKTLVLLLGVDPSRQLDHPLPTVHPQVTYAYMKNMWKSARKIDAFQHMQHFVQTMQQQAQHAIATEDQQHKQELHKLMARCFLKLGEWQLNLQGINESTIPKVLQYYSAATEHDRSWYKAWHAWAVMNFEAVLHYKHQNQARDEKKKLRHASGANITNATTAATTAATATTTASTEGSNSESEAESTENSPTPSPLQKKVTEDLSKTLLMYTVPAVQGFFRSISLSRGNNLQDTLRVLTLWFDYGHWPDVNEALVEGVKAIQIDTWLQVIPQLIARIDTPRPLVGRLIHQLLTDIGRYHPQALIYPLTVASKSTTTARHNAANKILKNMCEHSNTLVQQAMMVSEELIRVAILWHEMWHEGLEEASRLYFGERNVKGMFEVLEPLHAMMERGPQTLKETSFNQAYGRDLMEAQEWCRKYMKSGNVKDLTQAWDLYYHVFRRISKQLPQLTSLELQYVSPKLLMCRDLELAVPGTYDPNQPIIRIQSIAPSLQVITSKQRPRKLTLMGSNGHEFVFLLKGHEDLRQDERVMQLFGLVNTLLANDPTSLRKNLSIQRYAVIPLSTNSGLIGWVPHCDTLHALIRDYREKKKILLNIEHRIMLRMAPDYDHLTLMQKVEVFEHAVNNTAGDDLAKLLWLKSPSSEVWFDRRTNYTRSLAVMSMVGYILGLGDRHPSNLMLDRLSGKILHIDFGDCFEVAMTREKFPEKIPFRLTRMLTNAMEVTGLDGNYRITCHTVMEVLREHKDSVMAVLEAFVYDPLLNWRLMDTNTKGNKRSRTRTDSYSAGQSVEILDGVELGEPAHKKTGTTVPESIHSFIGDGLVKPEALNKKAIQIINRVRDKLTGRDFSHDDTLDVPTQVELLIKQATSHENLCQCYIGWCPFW

## CN1CC(C)(C)Oc2nc(N3CC4CCC(C3)O4)nc(-c3ccc(NC(=O)Nc4ccncc4)cc3)c2C1=O [Example 69, 1-Pyridin-4-yl-3-{4-[6,8,8-trimethyl-2-(8-oxa-3-azabicyclo[3.2.1]oct-3-yl)-5-oxo-5,6,7,8-tetrahydro-9-oxa-1,3,6-triazabenzocyclohepten-4-yl]phenyl}urea]
[1]
  IC50: 6 nM
U87MG tumour cells
  IC50: 79 nM
Akt-pS473 in U87MG cells
  IC50: 35 nM
PI3Kα (p110α/p85α)
  PI3Ka IC50: 472 nM

## COc1ccnc(NC(=O)Nc2ccc(-c3nc(N4CC5CCC(C4)O5)nc4c3C(=O)N(C)CC(C)(C)O4)cc2)c1 [Example 21, 1-(4-methoxypyridin-2-yl)-3-{4-[6,8,8-trimethyl-2-(8-oxa-3-azabicyclo[3.2.1]oct-3-yl)-5-oxo-5,6,7,8-tetrahydro-9-oxa-1,3,6-triazabenzocyclohepten-4-yl]phenyl}urea]
[1]
  IC50: 15 nM
U87MG tumour cells
  IC50: 549 nM
Akt-pS473 in U87MG cells
  IC50: 51 nM
PI3Kα (p110α/p85α)
  PI3Ka IC50: >10000 nM

## CCN1CC(C)(C)Oc2nc(N3CC4CCC(C3)O4)nc(-c3ccc(NC(=O)Nc4ccc(C(=O)NCC(C)(C)O)cc4)cc3)c2C1=O [Example 190, 4-(3-{4-[6-Ethyl-8,8-dimethyl-2-(8-oxa-3-azabicyclo[3.2.1]oct-3-yl)-5-oxo-5,6,7,8-tetrahydro-9-oxa-1,3,6-triazabenzocyclohepten-4-yl]phenyl}ureido)-N-(2-hydroxy-2-methylpropyl)benzamide]
[1]
  IC50: 40 nM
U87MG tumour cells
  IC50: 734 nM
Akt-pS473 in U87MG cells
  inhibition at 3 µM: 69%
PI3Kα (p110α/p85α)
  PI3Ka IC50: 927 nM

## CCN1CC(C)(C)Oc2nc(N3CCOC[C@@H]3C)nc(-c3ccc(NC(=O)Nc4cccc(C)n4)cc3)c2C1=O [Example 36, 1-{4-[6-Ethyl-8,8-dimethyl-2-((S)-3-methylmorpholin-4-yl)-5-oxo-5,6,7,8-tetrahydro-9-oxa-1,3,6-triazabenzocyclohepten-4-yl]phenyl}-3-(6-methylpyridin-2-yl)urea]
[1]
  IC50: 55 nM
U87MG tumour cells
  IC50: 686 nM
Akt-pS473 in U87MG cells
  IC50: 129 nM
PI3Kα (p110α/p85α)
  PI3Ka IC50: 4400 nM

## CCN1CC(C)(C)Oc2nc(N3CCOC[C@@H]3C)nc(-c3ccc(NC(=O)Nc4ccccn4)c(F)c3)c2C1=O [Example 192, 1-{4-[6-Ethyl-8,8-dimethyl-2-((S)-3-methylmorpholin-4-yl)-5-oxo-5,6,7,8-tetrahydro-9-oxa-1,3,6-triazabenzocyclohepten-4-yl]-2-fluorophenyl}-3-pyridin-2-ylurea]
[1]
  IC50: 29 nM
U87MG tumour cells
  IC50: 1770 nM
Akt-pS473 in U87MG cells
  inhibition at 3 µM: 82%
PI3Kα (p110α/p85α)
  PI3Ka IC50: 1310 nM

## CCN1CC(C)(C)Oc2nc(N3C4CCC3COC4)nc(-c3ccc(NC(=O)Nc4ccccn4)cc3)c2C1=O [Example 63, 1-{4-[6-Ethyl-8,8-dimethyl-2-(3-oxa-8-azabicyclo[3.2.1]oct-8-yl)-5-oxo-5,6,7,8-tetrahydro-9-oxa-1,3,6-triazabenzocyclohepten-4-yl]phenyl}-3-pyridin-2-ylurea]
[1]
  IC50: 31 nM
U87MG tumour cells
  IC50: 190 nM
Akt-pS473 in U87MG cells
  IC50: 31 nM
PI3Kα (p110α/p85α)
  PI3Ka IC50: >10000 nM

## Cc1ccc(NC(=O)Nc2ccc(-c3nc(N4C5CCC4COC5)nc4c3C(=O)N(C)CC(C)(C)O4)cc2F)cn1 [Example 67, 1-{2-Fluoro-4-[6,8,8-trimethyl-2-(3-oxa-8-azabicyclo[3.2.1]oct-8-yl)-5-oxo-5,6,7,8-tetrahydro-9-oxa-1,3,6-triazabenzocyclohepten-4-yl]phenyl}-3-(6-methylpyridin-3-yl)urea]
[1]
  IC50: 15 nM
U87MG tumour cells
  IC50: 69 nM
Akt-pS473 in U87MG cells
  IC50: 20 nM
PI3Kα (p110α/p85α)
  PI3Ka IC50: >10000 nM

## CCN1CC(C)(C)Oc2nc(N3CCOC[C@@H]3C)nc(-c3ccc(NC(=O)OCCO)cc3)c2C1=O [Example 186, {4-[6-Ethyl-8,8-dimethyl-2-((S)-3-methylmorpholin-4-yl)-5-oxo-5,6,7,8-tetrahydro-9-oxa-1,3,6-triazabenzocyclohepten-4-yl]phenyl}carbamic acid 2-hydroxyethyl ester]
[1]
  IC50: 25 nM
U87MG tumour cells
  IC50: 266 nM
Akt-pS473 in U87MG cells
  IC50: 60 nM
PI3Kα (p110α/p85α)
  PI3Ka IC50: 3940 nM
